Test results reported in patent US20110123466A1, “PHARMACEUTICAL AND/OR COSMETIC COMPOSITION CONTAINING AN ACTIVE PRINCIPLE ACTIVATOR OF CYTOCHROME C” (SOCIETE D'EXTRACTION DES PRINCIPES ACTIFS S.A (ISP …, priority 2007, published 2011).
Ends that are not written are not given here.

Experiments:
[1] = system: Dermal fibroblasts; test: Synthesis of intracellular ATP (ATP Bioluminescence Assay Kit HS II); format: cell-based; conditions: 1% solution of a 50 ppm peptide solution, compared to untreated cells
Protocol: Protocol: This study was conducted using an ATP Bioluminescence Assay Kit HS II (Roche Applied Science). Dermal fibroblasts were treated with a 1% solution of a 50 ppm solution containing the SEQ ID No. 2 peptide, representative of the peptide family according to the invention, for a period of 1 to 3 hours. At the end of incubation, the tubes were rinsed with 2 ml of cold PBS before adding 250 μl of a lysis buffer provided in the kit. The cells of each tubes were then scraped up and collected in 14-ml tubes. Each tube was rinsed with 2×500 μl of cold PBS and the whole was collected again in the respective tubes. […] The ATP measurement was performed on these samples: 50 μl of this dilution was placed in a Luma cuvette and […]. After 10 seconds, the luminescence reading was begun. The values were standardized relative to the quantity of proteins for each sample. The measurements were made using the Biocounter M2010A Luma®/3M equipment.

[2] = system: dermal fibroblast mitochondria; test: Mitochondrial membrane potential, JC-1 marking, with or without H2O2 or UVB stress; format: cell-based, human
Protocol: The aim of this study was to determine the protective effect of the SEQ ID No. 2 peptide with respect to dermal fibroblast mitochondria subjected to an oxidative stress caused by oxygenated water (H2O2) or UVB irradiation. A marker for the membrane potential of mitochondria (JC-1) was used for this. JC-1 is a marker that emits different fluorescences depending on the level of polarization of the mitochondrial membrane.
Protocol: Human dermal fibroblasts were treated with a 1% solution of a 50-ppm SEQ ID No. 2 peptide mother-solution for 96 hours and then subjected to an oxidative stress caused by 2 mM of H2O2 for 30 min. or to UVB irradiation at 50 mJ/cm^2. Controls not treated with the peptide or H2O2 or not irradiated were performed under the same conditions. At the end of the experiment, the cells were washed, fixed, and subjected to marking with a 0.2 μg/ml solution of JC-1 (Molecular Probes®) in order to disclose the membrane potential of the mitochondria.

[3] = system: cytochrome C; test: Expression of cytochrome C by immunotransfer (Western Blot); format: cell-based; conditions: human dermal fibroblasts; 1% solution of a 50-ppm mother-solution; 72 hours
Protocol: The aim of this study was to determine the effect of the SEQ ID No. 2 peptide on the expression of cytochrome C. For this, the quantity of cytochrome C was evaluated by the immunotransfer (or Western Blot) technique.
Protocol: Human dermal fibroblasts were treated with a 1% solution of a 50-ppm SEQ ID No. 2 peptide mother-solution for 72 hours. The cells were then lysed and homogenized by sonication, then centrifuged for 10 minutes at 1000 g. The samples, standardized for their protein concentration (BCA measurement kit, Pierce) were subjected to electrophoresis on 4-12% bis-tris gel (Invitrogen). After electro-transfer, the membranes were incubated overnight with an anticytochrome C antibody, diluted to 1/500 (mouse monoclonal anti-cytochrome C, Tebu). A secondary antibody, coupled to the peroxidase and diluted to 1/5000 was then used (peroxidase conjugated F(ab′)2, goat antimouse, Immunotech). The chemiluminescent signal was then quantified using the Supersignal West Femto Trial kit and read in a reading chamber (MultiImage Light Cabinet, Immunotech Corporation).

[4] = system: cytochrome oxidase; test: Enzymatic activity of cytochrome oxidase (Cytocox 1 kit) in treated fibroblasts; format: cell-based; conditions: normal human fibroblasts, 1% solution of a 50-ppm solution, compared with untreated cells
Protocol: The aim of this study was to determine the effect of the SEQ ID No. 2 peptide on mitochondrial activity. For this, the total enzymatic (mitochondrial) activity of cytochrome oxidase was measured.
Protocol: Normal human fibroblasts were treated with a 1% solution of a 50-ppm solution containing the SEQ ID No. 2 peptide, representative of the peptide family according to the invention, for 3 hours and 24 hours. The cells were collected, rinsed, and then lysed by sonication. A first centrifuging was performed to eliminate the principal cellular debris, and the supernatant was then centrifuged again at 10,000 g for 10 minutes. The enzymatic activity was measured in the supernatant and/or in the second residue, by a biochemical method using the Cytocox 1 kit (Sigma-Aldrich), then standardized for protein content (measured with the BCA kit, Pierce).

increase in enzymatic activity of cytochrome oxidase ([4]; 24 hours after application): 750%
increase in enzymatic activity of cytochrome oxidase ([4]; after 3 hours): 150%
Substance: Tyr-Leu-Lys-Lys-Ala-NH2 (YLKKA-NH2) [SEQ ID No. 2]
increase in the amount of intracellular ATP ([1]; after 3 hours): 27%
increase in the amount of intracellular ATP ([1]; after one hour): 41%
mitochondrial membrane potential (JC-1 red fluorescence) under stress ([2]; peptide for 96 hours, then 2 mM H2O2 for 30 min or UVB 50 mJ/cm^2): more marked red fluorescence
mitochondrial membrane potential (JC-1 red fluorescence) ([2]; unstressed human dermal fibroblasts, 1% solution of a 50-ppm mother-solution, 96 hours): elevated membrane potential, greater than in the control cells
expression of cytochrome C [3]: clear increase
